{
  "source": "ChEMBL document CHEMBL5303304",
  "about": "“EUbOPEN Chemogenomics Library - IncuCyte” (2023); further: unitless GR value; below 1 slowed growth and below 0 cell loss",
  "assay_type_in_all_cases": "toxicity, cell-based",
  "key": {"Fibroblast": {"system": "Fibroblast", "assay": "Incucyte cell viability with human fibroblast", "details": "10 µM, compound concentration 10 uM"}, "HEK-293T": {"system": "HEK-293T", "assay": "Incucyte cell viability with HEK293T", "details": "human, 10 µM, compound concentration 10 uM"}, "U2OS": {"system": "U2OS", "assay": "Incucyte cell viability with U2OS", "details": "human, 10 µM, compound concentration 10 uM"}},
  "data": [
    {"smiles": "CC(C)(O)c1cnc(N2C[C@@]3(CCC[C@](C)(Cn4cnc5ccc(C#N)cc54)C3)OC2=O)cn1", "note": "[GSK2798745]", "values": [
      {"measurement": "Growth Rate", "setting": "Fibroblast; 0 h, replicate number 1", "value": 0.24},
      {"measurement": "Growth Rate", "setting": "Fibroblast; 6 h, replicate number 2", "value": -1},
      {"measurement": "Growth Rate", "setting": "Fibroblast; 12 h, replicate number 2", "value": -0.2},
      {"measurement": "Growth Rate", "setting": "Fibroblast; 18 h, replicate number 1", "value": -0.39},
      {"measurement": "Growth Rate", "setting": "Fibroblast; 18 h, replicate number 2", "value": 0.4},
      {"measurement": "Growth Rate", "setting": "Fibroblast; 24 h, replicate number 2", "value": 0.36},
      {"measurement": "Growth Rate", "setting": "HEK-293T; 6 h, replicate number 1", "value": -0.31},
      {"measurement": "Growth Rate", "setting": "HEK-293T; 6 h, replicate number 2", "value": 0.2},
      {"measurement": "Growth Rate", "setting": "HEK-293T; 12 h, replicate number 1", "value": 0.38},
      {"measurement": "Growth Rate", "setting": "HEK-293T; 12 h, replicate number 2", "value": 0.41},
      {"measurement": "Growth Rate", "setting": "HEK-293T; 18 h, replicate number 1", "value": 0.47},
      {"measurement": "Growth Rate", "setting": "HEK-293T; 18 h, replicate number 2", "value": 0.43},
      {"measurement": "Growth Rate", "setting": "HEK-293T; 24 h, replicate number 1", "value": 0.49},
      {"measurement": "Growth Rate", "setting": "HEK-293T; 24 h, replicate number 2", "value": 0.45}
    ]},
    {"smiles": "COc1cc(-c2cncc(-c3ccc(N4CCN(C(C)C)CC4)cc3)c2C)cc(F)c1C(N)=O", "values": [
      {"measurement": "Growth Rate", "setting": "Fibroblast; 0 h, replicate number 2", "value": -0.84},
      {"measurement": "Growth Rate", "setting": "HEK-293T; 0 h, replicate number 1", "value": -0.67}
    ]},
    {"smiles": "O=C(Nc1ccc(C(O)(C(F)(F)F)C(F)(F)F)cc1)c1ccc(C(F)(F)F)cc1", "values": [
      {"measurement": "Growth Rate", "setting": "Fibroblast; 6 h, replicate number 1", "value": 0.78},
      {"measurement": "Growth Rate", "setting": "Fibroblast; 6 h, replicate number 2", "value": -0.08},
      {"measurement": "Growth Rate", "setting": "Fibroblast; 12 h, replicate number 1", "value": 0.64},
      {"measurement": "Growth Rate", "setting": "Fibroblast; 12 h, replicate number 2", "value": 0.22},
      {"measurement": "Growth Rate", "setting": "Fibroblast; 18 h, replicate number 1", "value": 0.52},
      {"measurement": "Growth Rate", "setting": "Fibroblast; 18 h, replicate number 2", "value": 0.11},
      {"measurement": "Growth Rate", "setting": "Fibroblast; 24 h, replicate number 1", "value": 0.47},
      {"measurement": "Growth Rate", "setting": "Fibroblast; 24 h, replicate number 2", "value": 0.07},
      {"measurement": "Growth Rate", "setting": "HEK-293T; 0 h, replicate number 2", "value": -0.33},
      {"measurement": "Growth Rate", "setting": "HEK-293T; 6 h, replicate number 1", "value": -0.31},
      {"measurement": "Growth Rate", "setting": "HEK-293T; 6 h, replicate number 2", "value": 0.09},
      {"measurement": "Growth Rate", "setting": "HEK-293T; 12 h, replicate number 1", "value": -0.13},
      {"measurement": "Growth Rate", "setting": "HEK-293T; 12 h, replicate number 2", "value": 0.2},
      {"measurement": "Growth Rate", "setting": "HEK-293T; 18 h, replicate number 1", "value": 0.04},
      {"measurement": "Growth Rate", "setting": "HEK-293T; 18 h, replicate number 2", "value": 0.18},
      {"measurement": "Growth Rate", "setting": "HEK-293T; 24 h, replicate number 1", "value": 0.05},
      {"measurement": "Growth Rate", "setting": "HEK-293T; 24 h, replicate number 2", "value": 0.15}
    ]},
    {"smiles": "Cl.Clc1cc2cc(c1)-c1cnn3ccc(nc13)NCCOCCO2", "values": [
      {"measurement": "Growth Rate", "setting": "Fibroblast; 6 h, replicate number 1", "value": 0.79},
      {"measurement": "Growth Rate", "setting": "Fibroblast; 6 h, replicate number 2", "value": -0.68},
      {"measurement": "Growth Rate", "setting": "Fibroblast; 12 h, replicate number 1", "value": -1},
      {"measurement": "Growth Rate", "setting": "Fibroblast; 18 h, replicate number 1", "value": 0.22},
      {"measurement": "Growth Rate", "setting": "Fibroblast; 24 h, replicate number 1", "value": -0.13},
      {"measurement": "Growth Rate", "setting": "U2OS; 0 h, replicate number 1", "value": -0.1},
      {"measurement": "Growth Rate", "setting": "U2OS; 0 h, replicate number 2", "value": 0.65},
      {"measurement": "Growth Rate", "setting": "U2OS; 6 h, replicate number 2", "value": 0.72},
      {"measurement": "Growth Rate", "setting": "U2OS; 12 h, replicate number 1", "value": 0.99},
      {"measurement": "Growth Rate", "setting": "U2OS; 12 h, replicate number 2", "value": 0.85},
      {"measurement": "Growth Rate", "setting": "U2OS; 24 h, replicate number 1", "value": 0.93},
      {"measurement": "Growth Rate", "setting": "U2OS; 24 h, replicate number 2", "value": 0.92}
    ]},
    {"smiles": "CC(C)N(CCCCOCC(=O)O)c1cnc(-c2ccccc2)c(-c2ccccc2)n1", "values": [
      {"measurement": "Growth Rate", "setting": "Fibroblast; 0 h, replicate number 2", "value": -0.09},
      {"measurement": "Growth Rate", "setting": "U2OS; 24 h, replicate number 2", "value": 0.99}
    ]},
    {"smiles": "O=C(O)c1ccc(CN2C[C@@H]3C[C@H]2CN3Cc2ccc(Oc3ccc(-c4ncco4)cc3)cc2)cc1", "note": "[ACEBILUSTAT]", "values": [
      {"measurement": "Growth Rate", "setting": "Fibroblast; 0 h, replicate number 1", "value": -0.98},
      {"measurement": "Growth Rate", "setting": "Fibroblast; 6 h, replicate number 2", "value": -0.8},
      {"measurement": "Growth Rate", "setting": "Fibroblast; 12 h, replicate number 2", "value": 0.38},
      {"measurement": "Growth Rate", "setting": "Fibroblast; 18 h, replicate number 2", "value": 0.62},
      {"measurement": "Growth Rate", "setting": "Fibroblast; 24 h, replicate number 2", "value": 0.87},
      {"measurement": "Growth Rate", "setting": "U2OS; 0 h, replicate number 2", "value": 0.32},
      {"measurement": "Growth Rate", "setting": "U2OS; 6 h, replicate number 1", "value": 0.74},
      {"measurement": "Growth Rate", "setting": "U2OS; 6 h, replicate number 2", "value": -0.01},
      {"measurement": "Growth Rate", "setting": "U2OS; 12 h, replicate number 2", "value": 0.49},
      {"measurement": "Growth Rate", "setting": "U2OS; 18 h, replicate number 2", "value": 0.79},
      {"measurement": "Growth Rate", "setting": "U2OS; 24 h, replicate number 2", "value": 0.82}
    ]},
    {"smiles": "Cc1cc(Cn2c(N3CC4(CNC4)C3)nc3cc(Cl)cc(N4CCN(C)CC4)c32)cc(C)c1F", "values": [
      {"measurement": "Growth Rate", "setting": "Fibroblast; 0 h, replicate number 1", "value": -1},
      {"measurement": "Growth Rate", "setting": "Fibroblast; 0 h, replicate number 2", "value": -0.8},
      {"measurement": "Growth Rate", "setting": "Fibroblast; 6 h, replicate number 1", "value": -0.09},
      {"measurement": "Growth Rate", "setting": "Fibroblast; 6 h, replicate number 2", "value": -0.44},
      {"measurement": "Growth Rate", "setting": "Fibroblast; 12 h, replicate number 1", "value": -0.09},
      {"measurement": "Growth Rate", "setting": "Fibroblast; 12 h, replicate number 2", "value": 0.21},
      {"measurement": "Growth Rate", "setting": "Fibroblast; 18 h, replicate number 1", "value": 0},
      {"measurement": "Growth Rate", "setting": "Fibroblast; 18 h, replicate number 2", "value": 0.16},
      {"measurement": "Growth Rate", "setting": "Fibroblast; 24 h, replicate number 1", "value": 0.06},
      {"measurement": "Growth Rate", "setting": "Fibroblast; 24 h, replicate number 2", "value": 0.36},
      {"measurement": "Growth Rate", "setting": "U2OS; 0 h, replicate number 1", "value": -0.3},
      {"measurement": "Growth Rate", "setting": "U2OS; 0 h, replicate number 2", "value": -0.61},
      {"measurement": "Growth Rate", "setting": "U2OS; 6 h, replicate number 1", "value": 0.43},
      {"measurement": "Growth Rate", "setting": "U2OS; 6 h, replicate number 2", "value": 0.64},
      {"measurement": "Growth Rate", "setting": "U2OS; 12 h, replicate number 1", "value": 0.79},
      {"measurement": "Growth Rate", "setting": "U2OS; 12 h, replicate number 2", "value": 0.82},
      {"measurement": "Growth Rate", "setting": "U2OS; 18 h, replicate number 1", "value": 0.95},
      {"measurement": "Growth Rate", "setting": "U2OS; 18 h, replicate number 2", "value": 0.98},
      {"measurement": "Growth Rate", "setting": "U2OS; 24 h, replicate number 1", "value": 0.83},
      {"measurement": "Growth Rate", "setting": "U2OS; 24 h, replicate number 2", "value": 0.96}
    ]}
  ]
}
